Source: ChEMBL document CHEMBL1159166, “Chemoselective thioacylation of amino acids. Preparation of the four monothiothymopentin analogs and their biological activity” (1993)
Where a SMILES comes first, the peptide text is derived from it.

Species: Bos taurus
Test: Electromyographic activity is measured as mean of the ratio of the height of the muscle action potential generated by the tenth impulse to the initial impulse in bovine thymus extracts at 10 mg
Format: functional, Muscle tissue

First: CC(C)[C@H](/N=C(\S)[C@H](CC(=O)O)NC(=O)[C@H](CCCCN)NC(=O)[C@@H](N)CCCN=C(N)N)C(=O)N[C@@H](Cc1ccc(O)cc1)C(=O)O
Second: CC(C)[C@H](NC(=O)[C@H](CC(=O)O)NC(=O)[C@H](CCCCN)NC(=O)[C@@H](N)CCCN=C(N)N)C(=O)N[C@@H](Cc1ccc(O)cc1)C(=O)O [THYMOPENTIN] (H-RKDVY-OH)
The Mean of the first is higher: 0.89 for the first, 0.83 for the second.

First: CC(C)[C@H](NC(=O)[C@H](CC(=O)O)NC(=O)[C@H](CCCCN)NC(=O)[C@@H](N)CCCN=C(N)N)/C(S)=N/[C@@H](Cc1ccc(O)cc1)C(=O)O
Second: CC(C)[C@H](NC(=O)[C@H](CC(=O)O)/N=C(\S)[C@H](CCCCN)NC(=O)[C@@H](N)CCCN=C(N)N)C(=O)N[C@@H](Cc1ccc(O)cc1)C(=O)O
The Mean of the first is higher: 0.84 for the first, 0.83 for the second.

`CC(C)[C@H](NC(=O)[C@H](CC(=O)O)NC(=O)[C@H](CCCCN)/N=C(\S)[C@@H](N)CCCN=C(N)N)C(=O)N[C@@H](Cc1ccc(O)cc1)C(=O)O` was tested, and the Mean was 0.85.
